Reference: patent US20260224547A1, “COMPOSITIONS COMPRISING ANATABINE AND USES THEREOF” (Philip Morris Products S.A., priority 2021, published 2026)

Tested on: HEK-293, SH-SY5Y, primary human keratinocytes, THP-1 differentiated with PMA
Experiment: Cell viability, CellTiterGlo (ATP content), used to select concentrations
Assay type: cell-based
Settings: 24 hours of exposure; no more than 400 μM anatabine free base

C1=CCC(c2cccnc2)NC1 (racemic) [anatabine, 1,2,3,6-Tetrahydro-2,3′-bipyridine]
cell viability (ATP content vs medium-only control): ≥ 80%
